Results as given in patent US5880111A, “Therapeutic derivations of diphosphonates” (priority 1995, dated 1999).
In brackets after ≈: the same amount, converted by molar mass. Like-named read-outs stand apart in the source and are kept apart here.

Assays:
Assay in all cases: MIC by broth-dilution method
Format in all cases: cell-based
[1] = system: Salmonella typhi OKI 10084; settings: Salmonella enterica
Procedure: (§1) The antibacterial action of the product was evaluated against the following bacterial strains:
Gram negative bacteria: Salmonella typhi OKI 10084
(§2) The sensitivity of the foregoing bacterial strains to both the product of Example 1 and norfloxacin was investigated by the broth-dilution method, and the minimal inhibitory concentration (MIC) values were assessed. MIC was defined as the lowest concentration ([…]) at which no bacterial growth could be observed visually.
(§3) The antibiotics were dissolved in dimethylsulfoxide (DMSO) and the solution was diluted by nine consecutive 2-fold dilutions in Nutrient-broth (NB) culture medium. Aliquots (0.2 ml) from each of these diluted solutions were added to test tubes containing 1.6 ml NB culture medium. The antibiotics were investigated in the concentration range of 100-0.38 μg/ml.
(§4) After overnight culture in NB at 37° C., the bacterial cultures were diluted so that their optical densities (OD) at 620 nm were between 0.08-0.1.
(§5) Incubation of the test tubes took place in a thermostat at 37° C. The test tubes were inspected visually after 24 and 48 hours. The margin of error of in vitro sensitivity determination was ± one dilution step. MIC values were read after 48 hours of incubation. The MIC value was the lowest antibiotic concentration at which no bacterial growth was observed, i.e. the culture medium remained clear. […]

[2] = system: Streptococcus faecalis OKI 80171; settings: Enterococcus faecalis, OKI80171, Nutrient-broth, 37° C., read after 48 hours, mean of three independent experiments
Procedure: as §1
Streptococcus faecalis OKI 80171
as §2, §3, §4, §5

[3] = system: Escherichia coli OKI 35034
Procedure: as §1
Escherichia coli OKI 35034
as §2, §3, §4, §5

[4] = system: Proteus vulgaris OKI 60002
Procedure: as §1
Proteus vulgaris OKI 60002
as §2, §3, §4, §5

[5] = system: Staphylococcus aureus ATCC 25923
Procedure: as §1
Gram positive bacteria: Staphylococcus aureus ATCC 25923
as §2, §3, §4, §5

[6] = system: Pseudomonas aeruginosa ATCC 27853
Procedure: as §1
Pseudomonas aeruginosa ATCC 27853
as §2, §3, §4, §5

[7] = system: Staphylococcus epidermidis OKI 110001
Procedure: as §1
Staphylococcus epidermidis OKI 110001
as §2, §3, §4, §5

SMILES	MIC ([1]; Salmonella typhi OKI 10084, Nutrient-broth, 37° C., read after 48 hours, mean of three independent experiments, read-out: MIC)	MIC [2]	MIC ([3]; Escherichia coli, OKI35034, 48 h)	MIC ([4]; Proteus vulgaris, OKI60002, 48 h)	MIC ([5]; Staphylococcus aureus, ATCC25923, 48 h)	MIC ([6]; Pseudomonas aeruginosa, ATCC27853, 48 h)	MIC ([7]; Staphylococcus epidermidis, OKI110001, 48 h)	MIC ([1]; TYPHI, 48 h)	MIC ([3]; OKI35034, Escherichia coli OKI 35034, Nutrient-broth, 37° C., read after 48 hours, mean of three independent experiments, read-out: MIC)	MIC ([4]; OKI60002, Proteus vulgaris OKI 60002, Nutrient-broth, 37° C., read after 48 hours, mean of three independent experiments, read-out: MIC)	MIC ([5]; ATCC25923, Staphylococcus aureus ATCC 25923, Nutrient-broth, 37° C., read after 48 hours, mean of three independent experiments, read-out: MIC)	MIC ([6]; ATCC27853, Pseudomonas aeruginosa ATCC 27853, Nutrient-broth, 37° C., read after 48 hours, mean of three independent experiments, read-out: MIC)	MIC ([7]; OKI110001, Staphylococcus epidermidis OKI 110001, Nutrient-broth, 37° C., read after 48 hours, only two experiments, read-out: MIC)
CCOP(=O)(OCC)C(CN1CCN(c2cc3c(cc2F)c(=O)c(C(=O)O)cn3CC)CC1)P(=O)(OCC)OCC [Example 1, 6-Fluoro-1-ethyl-7-{4-[2,2-bis(diethoxyphosphono)-1-ethyl]-l-piperazyl}-4-oxo-1,4-dihydroquinoline-3-carboxylic acid]	25 µg/mL (≈ 40.4 µM)	12.5 µg/mL (≈ 20.2 µM)	25 µg/mL (≈ 40.4 µM)	3.12 µg/mL (≈ 5.04 µM)	12.5 µg/mL (≈ 20.2 µM)	50 µg/mL (≈ 80.7 µM)	12.5 µg/mL (≈ 20.2 µM)	–	–	–	–	–	–
CCn1cc(C(=O)O)c(=O)c2cc(F)c(N3CCNCC3)cc21 [NORFLOXACIN, norfloxacin]	–	12.5 µg/mL (≈ 39.1 µM)	–	–	–	–	–	12.5 µg/mL (≈ 39.1 µM)	6.25 µg/mL (≈ 19.6 µM)	6.25 µg/mL (≈ 19.6 µM)	6.25 µg/mL (≈ 19.6 µM)	25 µg/mL (≈ 78.3 µM)	6.25 µg/mL (≈ 19.6 µM)
